The source made the active and inactive calls. Cut-off read from the data, not from the text of the source, for most assays here: actives have a measured EC50 and inactives only a lower limit.
Experiments:
[1] = NIH-3T3 fibroblast cytotoxicity, dose response, cytotoxicity control, cell-based, fluorescence, Alamar Blue, secondary assay (AID 2327); type: functional;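 note: NIH-3T3 mouse fibroblasts cultured with fluconazole at 8 µg/mL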
[2] = fluconazole-exposed Candida albicans growth modulators – fluorescence, retest, confirmation (AID 2467); type: functional, cell-based
[3] = target: T1, Calpain-2 catalytic subunit (Sus scrofa, UniProt P43367); experiment: m-calpain protease blockers, concentration series – biochemical, fluorogenic peptide substrate, dose response (AID 1420); type: functional
T1 sequence (P43367 whole entry): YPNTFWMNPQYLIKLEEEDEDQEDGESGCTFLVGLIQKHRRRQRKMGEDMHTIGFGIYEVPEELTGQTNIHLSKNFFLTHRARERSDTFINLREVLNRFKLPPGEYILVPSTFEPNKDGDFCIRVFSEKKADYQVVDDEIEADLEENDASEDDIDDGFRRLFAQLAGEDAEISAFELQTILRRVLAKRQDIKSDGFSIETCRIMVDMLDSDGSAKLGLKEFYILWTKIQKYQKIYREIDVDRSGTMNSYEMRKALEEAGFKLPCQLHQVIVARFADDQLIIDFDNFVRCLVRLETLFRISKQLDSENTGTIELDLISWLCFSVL

[4] = Luminescence Cell-Based Dose Confirmation HTS to Identify Activators of 5'UTR Stem-Loop Driven Alpha-Synuclein mRNA Translation in H4 Neuroglioblastoma Cells. [Related pubchem assays: 1829 (Project Summary), 1814 (Primary HTS)]; type: functional
[5] = Luminescence Cell-Based Dose Response HTS to Identify Activators of Luciferase Translation or Activity in H4 […] Cells. [Related pubchem assays: 1829 (Project Summary), 1814 (Primary HTS)]; type: functional
H4 = experiment: Luminescence Cell-Based Dose Response HTS to Identify Activators of 5'UTR Stem-Loop Driven Prion Protein mRNA Translation in H4 Neuroglioblastoma Cells. [Related pubchem assays: 1829 (Project Summary), 1814 (Primary HTS)]; type: functional; settings: Homo sapiens
[6] = target: Luciferin 4-monooxygenase (Photinus pyralis, UniProt P08659); experiment: inhibition of purified Photinus pyralis luciferase – biochemical, luminescence, dose response (AID 1891)
[7] = Luminescence Cell-Based Dose Confirmation HTS to Identify Inhibitors of Platelet Dense Granule Release. [Related pubchem assays: 1663 (Primary HTS), 1678 (Summary of Project)]; type: functional
[8] = target: T2, Replicative DNA helicase DnaB (Mycobacterium tuberculosis, UniProt P9WMR3); experiment: DnaB intein splicing inhibitors, dose response, biochemical, cell-free fluorescence (AID 449749); type: functional
T2 sequence (P9WMR3 whole entry): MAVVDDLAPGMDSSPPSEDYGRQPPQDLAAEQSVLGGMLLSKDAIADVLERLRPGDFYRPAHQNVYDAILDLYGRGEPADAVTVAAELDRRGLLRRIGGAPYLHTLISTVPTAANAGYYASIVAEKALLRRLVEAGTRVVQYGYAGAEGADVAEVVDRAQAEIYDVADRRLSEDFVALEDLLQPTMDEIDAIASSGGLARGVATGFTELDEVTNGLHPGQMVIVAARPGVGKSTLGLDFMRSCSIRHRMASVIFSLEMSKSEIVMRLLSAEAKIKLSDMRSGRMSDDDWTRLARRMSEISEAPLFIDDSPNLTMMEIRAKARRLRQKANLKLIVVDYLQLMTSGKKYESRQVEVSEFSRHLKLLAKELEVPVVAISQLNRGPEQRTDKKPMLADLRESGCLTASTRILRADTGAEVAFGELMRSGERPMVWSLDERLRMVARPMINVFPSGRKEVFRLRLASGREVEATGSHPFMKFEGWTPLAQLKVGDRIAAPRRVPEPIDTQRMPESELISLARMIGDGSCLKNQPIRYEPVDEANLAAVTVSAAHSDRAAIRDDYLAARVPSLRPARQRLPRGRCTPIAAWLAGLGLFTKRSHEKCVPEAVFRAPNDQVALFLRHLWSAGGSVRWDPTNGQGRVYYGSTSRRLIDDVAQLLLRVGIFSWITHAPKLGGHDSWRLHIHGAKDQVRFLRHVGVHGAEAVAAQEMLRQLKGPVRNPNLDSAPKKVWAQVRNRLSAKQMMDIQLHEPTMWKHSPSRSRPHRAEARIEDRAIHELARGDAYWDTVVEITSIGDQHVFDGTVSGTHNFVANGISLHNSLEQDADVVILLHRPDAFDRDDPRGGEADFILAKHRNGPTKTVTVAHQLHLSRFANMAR

Protein RecA = target: T3, Protein RecA (Mycobacterium tuberculosis, UniProt P9WHJ3); experiment: Fluorescence Cell-Free Homogeneous Dose Retest to Identify Inhibitors of RecA-Intein Splicing Activity. [Related pubchem assays (depositor defined):AID2097, AID2223, AID489010, AID492950]; type: functional
T3 sequence (P9WHJ3 whole entry): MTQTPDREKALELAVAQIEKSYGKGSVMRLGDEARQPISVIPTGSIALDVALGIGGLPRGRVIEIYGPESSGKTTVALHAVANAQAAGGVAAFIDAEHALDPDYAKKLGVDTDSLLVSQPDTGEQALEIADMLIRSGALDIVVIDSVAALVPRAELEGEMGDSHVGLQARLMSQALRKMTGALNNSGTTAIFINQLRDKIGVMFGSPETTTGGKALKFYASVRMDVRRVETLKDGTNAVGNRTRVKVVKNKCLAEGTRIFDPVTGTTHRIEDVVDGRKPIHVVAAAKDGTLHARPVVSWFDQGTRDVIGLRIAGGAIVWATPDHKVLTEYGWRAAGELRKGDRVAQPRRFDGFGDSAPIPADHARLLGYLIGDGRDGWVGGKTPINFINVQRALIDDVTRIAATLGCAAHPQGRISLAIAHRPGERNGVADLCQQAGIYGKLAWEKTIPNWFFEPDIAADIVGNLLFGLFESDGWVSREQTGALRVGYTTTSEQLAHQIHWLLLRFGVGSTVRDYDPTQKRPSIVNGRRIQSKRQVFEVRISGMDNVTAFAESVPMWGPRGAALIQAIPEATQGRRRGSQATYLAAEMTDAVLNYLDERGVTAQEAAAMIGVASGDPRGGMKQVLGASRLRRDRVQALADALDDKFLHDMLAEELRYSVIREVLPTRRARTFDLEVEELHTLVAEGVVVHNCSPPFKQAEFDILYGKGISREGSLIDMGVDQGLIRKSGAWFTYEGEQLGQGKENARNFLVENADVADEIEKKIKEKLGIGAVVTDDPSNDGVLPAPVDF

[9] = target: T4, Heat shock factor protein 1 (Mus musculus, UniProt P38532); experiment: enhancement of HSF1-driven luciferase signal – cell-based, NIH3T3, luminescence, dose retest, confirmation (AID 435004); type: functional;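 note: stress induced by proteasome inhibitor MG132 added 30 min after compound; luciferase reporter driven by HSF1 response element in NIH3T3 cells; actives raise luminescence as potentiators of the MG132 stress response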
T4 sequence (P38532 whole entry): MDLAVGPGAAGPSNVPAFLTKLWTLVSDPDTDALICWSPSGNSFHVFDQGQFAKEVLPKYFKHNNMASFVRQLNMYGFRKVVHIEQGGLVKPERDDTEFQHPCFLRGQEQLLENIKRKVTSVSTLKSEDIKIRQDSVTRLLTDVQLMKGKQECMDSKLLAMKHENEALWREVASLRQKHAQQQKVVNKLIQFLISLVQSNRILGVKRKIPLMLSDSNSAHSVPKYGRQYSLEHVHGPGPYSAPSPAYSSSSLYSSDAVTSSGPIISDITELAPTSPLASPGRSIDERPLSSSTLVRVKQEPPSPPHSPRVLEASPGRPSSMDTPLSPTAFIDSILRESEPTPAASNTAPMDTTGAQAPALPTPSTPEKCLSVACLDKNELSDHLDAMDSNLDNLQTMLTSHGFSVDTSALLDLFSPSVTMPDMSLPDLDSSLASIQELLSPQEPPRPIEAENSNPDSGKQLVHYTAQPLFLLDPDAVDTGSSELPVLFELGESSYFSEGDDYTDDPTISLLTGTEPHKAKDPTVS

[10] = tested on: Streptococcus sp. 'group A'; experiment: Streptococcus pyogenes SK(-)GAS viability under kanamycin – luminescence, BacTiterGlo, confirmation, counter-screen for streptokinase expression inhibitor project, dose response (AID 1900); type: functional, organism-based
Streptococcus = experiment: GAS UMAA2166 growth inhibition – luminescence, BacTiterGlo, counter-screen for streptokinase expression inhibitor project, dose response (AID 1915); type: functional, organism-based;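 note: potency for reduction of bacterial viability or growth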
[11] = target: T4, Heat shock factor protein 1; experiment: decrease of HSF1-responsive luciferase luminescence – cell-based, NIH3T3, dose retest, confirmation (AID 2382); type: functional;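 note: NIH3T3 fibroblasts with HSF1-driven luciferase reporter stressed by proteasome inhibitor MG132; luminescence from HSF1-driven luciferase expression after 8 hours of MG132 stress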

Chain of Luciferin 4-monooxygenase (P08659 whole entry): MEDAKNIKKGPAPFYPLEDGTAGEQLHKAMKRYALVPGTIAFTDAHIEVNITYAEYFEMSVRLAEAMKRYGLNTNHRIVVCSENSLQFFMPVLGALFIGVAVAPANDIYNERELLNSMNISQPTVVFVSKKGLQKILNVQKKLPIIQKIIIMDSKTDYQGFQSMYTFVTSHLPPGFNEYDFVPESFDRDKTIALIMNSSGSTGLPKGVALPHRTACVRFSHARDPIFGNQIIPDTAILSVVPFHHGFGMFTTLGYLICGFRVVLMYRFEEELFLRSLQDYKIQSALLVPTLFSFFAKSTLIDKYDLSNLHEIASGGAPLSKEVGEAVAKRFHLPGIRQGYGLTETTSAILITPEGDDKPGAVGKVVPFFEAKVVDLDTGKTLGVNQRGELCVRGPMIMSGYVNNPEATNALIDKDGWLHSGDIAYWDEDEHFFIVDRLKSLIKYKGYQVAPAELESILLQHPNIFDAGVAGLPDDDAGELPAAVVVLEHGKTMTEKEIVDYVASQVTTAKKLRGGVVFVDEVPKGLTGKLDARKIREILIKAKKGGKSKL

In the case of `Cc1ccc(C(=O)NC(=O)OCCn2c(C)cnc2[N+](=O)[O-])cc1`, the EC50 [1] is reported as > 160 µM (inconclusive) and the EC50 [2] is reported as > 38 µM (not active).
With `COc1ccc(NC(=S)N2CCN(CCN3C(=O)c4cccc5cccc(c45)C3=O)CC2)cc1` the IC50 [3] was 24.2 µM (not active).
In the case of `O=C(CSc1nnnn1-c1ccc(Cl)cc1)NC(=O)Nc1ccc2c(c1)OCCO2`, the EC50 [4] is reported as > 120 µM (not active), the EC50 [5] is reported as 45.7 µM (active) and the EC50 (H4) is reported as 10.1 µM (active).
For `O=C(O)c1ccc(CN2C(=O)CSC2=S)cc1`, the EC50 [1] was > 150 µM (inactive) and the EC50 [2] was 0.153 µM (active).
For `CCOC(=O)c1cc(-c2ccccc2)sc1NC(=O)C(C)OC(=O)c1cccnc1OCC` (stereo unspecified), the EC50 [6] was > 112 µM (not active) and the EC50 [7] was > 112 µM (not active).
For `O=C1CCN(N=Nc2cccc(Cl)c2)N1`, the EC50 [6] was > 112 µM (not active), the AC50 [8] was 40.7 µM (active) and the EC50 (Protein RecA) was 15.4 µM (active). The EC50 [7] was > 112 µM (not active).
In the case of `COC(=O)c1sccc1NC(=O)Nc1ccc(OC)c(OC)c1`, the EC50 [6] is reported as 2.36 µM (active) and the EC50 [7] is reported as 9.25 µM (active).
With `CC(C)=C1C2CCC1C1C(=O)N(c3nc(-c4ccccc4)c(C)s3)C(=O)C21` (stereo unspecified) the IC50 [3] was 8.52 µM (not active) and the EC50 [9] was > 260 µM (inactive).
For `CC(C)OC(=O)c1cn(-c2ccccc2)nc1-c1ccc2c(c1)OCCO2`, the IC50 [3] was 39.3 µM (not active).
With `O=[N+]([O-])c1cccc(N/N=C/c2ccc(N3CCOCC3)cc2)c1` the EC50 [5] was 46.8 µM (active) and the EC50 (H4) was 13.1 µM (active).
With `O=C(O)c1cccc(N/N=C/C2=C(Cl)c3cc(Cl)ccc3SC2)c1` the EC50 [10] was 2.48 µM (active), the EC50 (Streptococcus) was 6.65 µM (active) and the IC50 [3] was 2.38 µM (not active). The EC50 [11] was > 195 µM (not active).
With `O=C(N/N=C/c1ccc(Cl)c([N+](=O)[O-])c1)C1CC1` the IC50 [3] was 34.8 µM (not active).

Reference: ChEMBL document CHEMBL1201862, “PubChem BioAssay data set” (2004)
